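Assay format: 96-well plates, 48-hour exposure. GI50 is the concentration that inhibits growth by half. At the TGI there is no net growth.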
Key:
Assay in all cases: inhibition of tumour cell growth, NCI panel, 48 h
HT29 colon = system: HT29 colon
U251 CNS = system: U251 CNS
UACC-62 melanoma = system: UACC-62 melanoma
SF-539 CNS = system: SF-539 CNS
OVCAR-4 ovarian = system: OVCAR-4 ovarian
DU-145 prostate = system: DU-145 prostate
786-0 renal = system: 786-0 renal
SK-MEL-5 melanoma = system: SK-MEL-5 melanoma
OVCAR-3 ovarian = system: OVCAR-3 ovarian
NCI-H522 lung = system: NCI-H522 lung
NCI-H460 lung = system: NCI-H460 lung
T-47D breast = system: T-47D breast
HCC-2998 colon = system: HCC-2998 colon
A549 NSCLC = system: A549 NSCLC
K-562 leukemia = system: K-562 leukemia
RXF 393 renal = system: RXF 393 renal
SNB-19 CNS = system: SNB-19 CNS
BT-549 breast = system: BT-549 breast
MCF7 breast = system: MCF7 breast
SF-268 CNS = system: SF-268 CNS
CCRF-CEM leukemia = system: CCRF-CEM leukemia
EKVX NSCLC = system: EKVX NSCLC
M14 melanoma = system: M14 melanoma
KM12 colon = system: KM12 colon
A498 renal = system: A498 renal
SW-620 colon = system: SW-620 colon
HOP-62 NSCLC = system: HOP-62 NSCLC
SN12C renal = system: SN12C renal
IGROV1 ovarian = system: IGROV1 ovarian
SK-MEL-28 melanoma = system: SK-MEL-28 melanoma
HOP-92 NSCLC = system: HOP-92 NSCLC
NCI-H23 lung = system: NCI-H23 lung
UO-31 renal = system: UO-31 renal
HCT-116 colon = system: HCT-116 colon
TK-10 renal = system: TK-10 renal
MDA-MB-231 breast = system: MDA-MB-231 breast
SK-OV-3 ovarian = system: SK-OV-3 ovarian
MDA-MB-435 = system: MDA-MB-435
SR leukemia = system: SR leukemia
CAKI-1 renal = system: CAKI-1 renal
UACC-257 melanoma = system: UACC-257 melanoma
LOX IMVI melanoma = system: LOX IMVI melanoma
COLO 205 colon = system: COLO 205 colon
HS 578T breast = system: HS 578T breast
RPMI-8226 leukemia = system: RPMI-8226 leukemia
SNB-75 CNS = system: SNB-75 CNS
ACHN renal = system: ACHN renal
MALME-3M melanoma = system: MALME-3M melanoma
OVCAR-8 ovarian = system: OVCAR-8 ovarian
HCT-15 colon = system: HCT-15 colon
SK-MEL-2 melanoma = system: SK-MEL-2 melanoma
NCI/ADR-RES ovarian = system: NCI/ADR-RES ovarian
PC-3 prostate = system: PC-3 prostate
SF-295 CNS = system: SF-295 CNS
MDA-MB-468 breast = system: MDA-MB-468 breast
OVCAR-5 ovarian = system: OVCAR-5 ovarian
MOLT-4 leukemia = system: MOLT-4 leukemia
NCI-H226 lung = system: NCI-H226 lung
HL-60(TB) leukemia = system: HL-60(TB) leukemia

N#Cc1c(NC(=O)c2ccc(C(F)(F)F)cc2)sc2c1CCC(=O)C2
GI50 (HT29 colon): 465 nM
TGI (HT29 colon): 2060 nM
GI50 (U251 CNS): 622 nM
TGI (U251 CNS): 2470 nM
GI50 (UACC-62 melanoma): 691 nM
TGI (UACC-62 melanoma): 2000 nM
GI50 (SF-539 CNS): 300 nM
TGI (SF-539 CNS): 1060 nM
GI50 (OVCAR-4 ovarian): 1120 nM
TGI (OVCAR-4 ovarian): 2780 nM
GI50 (DU-145 prostate): 3750 nM
TGI (DU-145 prostate): > 100000 nM
GI50 (786-0 renal): 2500 nM
TGI (786-0 renal): > 41200 nM
GI50 (SK-MEL-5 melanoma): 1350 nM
TGI (SK-MEL-5 melanoma): 2640 nM
GI50 (OVCAR-3 ovarian): 844 nM
TGI (OVCAR-3 ovarian): 3200 nM
GI50 (NCI-H522 lung): 273 nM
TGI (NCI-H522 lung): 951 nM
GI50 (NCI-H460 lung): 2860 nM
TGI (NCI-H460 lung): 11800 nM
GI50 (T-47D breast): 322 nM
TGI (T-47D breast): 1380 nM
GI50 (HCC-2998 colon): 1430 nM
TGI (HCC-2998 colon): 2930 nM
GI50 (A549 NSCLC): 3520 nM
TGI (A549 NSCLC): 16300 nM
GI50 (K-562 leukemia): 316 nM
GI50 (RXF 393 renal): 271 nM
TGI (RXF 393 renal): 1230 nM
GI50 (SNB-19 CNS): 2200 nM
TGI (SNB-19 CNS): 13100 nM
GI50 (BT-549 breast): 1070 nM
TGI (BT-549 breast): 2510 nM
GI50 (MCF7 breast): 553 nM
TGI (MCF7 breast): 10100 nM
GI50 (SF-268 CNS): 2160 nM
TGI (SF-268 CNS): 11500 nM
GI50 (CCRF-CEM leukemia): 345 nM
TGI (CCRF-CEM leukemia): > 33300 nM
GI50 (EKVX NSCLC): 1320 nM
TGI (EKVX NSCLC): 3660 nM
GI50 (M14 melanoma): 1010 nM
TGI (M14 melanoma): 2850 nM
GI50 (KM12 colon): 1280 nM
TGI (KM12 colon): 4700 nM
GI50 (A498 renal): 24600 nM
TGI (A498 renal): 87500 nM
GI50 (SW-620 colon): 411 nM
TGI (SW-620 colon): 1820 nM
GI50 (HOP-62 NSCLC): 2840 nM
TGI (HOP-62 NSCLC): 11400 nM
GI50 (SN12C renal): 539 nM
TGI (SN12C renal): 3200 nM
GI50 (IGROV1 ovarian): 1230 nM
TGI (IGROV1 ovarian): 2740 nM
GI50 (SK-MEL-28 melanoma): 820 nM
TGI (SK-MEL-28 melanoma): 2110 nM
GI50 (HOP-92 NSCLC): 1190 nM
TGI (HOP-92 NSCLC): 3560 nM
GI50 (NCI-H23 lung): 402 nM
TGI (NCI-H23 lung): 2090 nM
GI50 (UO-31 renal): 467 nM
TGI (UO-31 renal): 1700 nM
GI50 (HCT-116 colon): 359 nM
TGI (HCT-116 colon): 2090 nM
GI50 (TK-10 renal): 1050 nM
TGI (TK-10 renal): 6850 nM
GI50 (MDA-MB-231 breast): 701 nM
TGI (MDA-MB-231 breast): 1980 nM
GI50 (SK-OV-3 ovarian): 2430 nM
TGI (SK-OV-3 ovarian): 6870 nM
GI50 (MDA-MB-435): 1400 nM
TGI (MDA-MB-435): 2970 nM
GI50 (SR leukemia): 522 nM
TGI (SR leukemia): > 100000 nM
GI50 (CAKI-1 renal): 572 nM
TGI (CAKI-1 renal): 2060 nM
GI50 (UACC-257 melanoma): 2150 nM
TGI (UACC-257 melanoma): > 22800 nM
GI50 (LOX IMVI melanoma): 350 nM
TGI (LOX IMVI melanoma): 1480 nM
GI50 (COLO 205 colon): 951 nM
TGI (COLO 205 colon): 2330 nM
GI50 (HS 578T breast): 1170 nM
TGI (HS 578T breast): 5020 nM
GI50 (RPMI-8226 leukemia): 273 nM
TGI (RPMI-8226 leukemia): > 100000 nM
GI50 (SNB-75 CNS): 1910 nM
TGI (SNB-75 CNS): 5250 nM
GI50 (ACHN renal): 390 nM
TGI (ACHN renal): 1400 nM
GI50 (MALME-3M melanoma): 1150 nM
TGI (MALME-3M melanoma): 2730 nM
GI50 (OVCAR-8 ovarian): 1390 nM
TGI (OVCAR-8 ovarian): 5900 nM
GI50 (HCT-15 colon): 362 nM
TGI (HCT-15 colon): 1450 nM
GI50 (SK-MEL-2 melanoma): 2070 nM
TGI (SK-MEL-2 melanoma): 4890 nM
GI50 (NCI/ADR-RES ovarian): 718 nM
TGI (NCI/ADR-RES ovarian): 2930 nM
GI50 (PC-3 prostate): 410 nM
TGI (PC-3 prostate): 2790 nM
GI50 (SF-295 CNS): 1290 nM
TGI (SF-295 CNS): 2960 nM
GI50 (MDA-MB-468 breast): 557 nM
TGI (MDA-MB-468 breast): 2270 nM
GI50 (OVCAR-5 ovarian): 1680 nM
TGI (OVCAR-5 ovarian): 3500 nM
GI50 (MOLT-4 leukemia): 419 nM
TGI (MOLT-4 leukemia): > 30100 nM
GI50 (NCI-H226 lung): 2180 nM
TGI (NCI-H226 lung): 7910 nM
GI50 (HL-60(TB) leukemia): 436 nM
TGI (HL-60(TB) leukemia): > 33200 nM
